This note sets out measurements from DBAASP.

SMILES strings stand for the structures. In brackets after ≈: the same amount, converted by molar mass.

Some test systems named below: Pseudomonas aeruginosa; Staphylococcus aureus; Escherichia coli; Staphylococcus aureus MR; Escherichia coli ML-35p; Bacillus subtilis; Pasteurella multocida; Streptococcus uberis; Bacillus cereus; Leuconostoc lactis; Micrococcus luteus; Listeria innocua.
What all share (assay): ≥ marks a high value that may be exact or a test limit, other limits are often not marked, values filed in µg/mL are converted to µM
For assay [1], the system named is Staphylococcus aureus ATCC 2592.
In assay [2] the test system is Candida albicans ATCC 2002.
Assay [3] concerns Pseudomonas aeruginosa ATCC 27853.
In assay [4] the test system is Pseudomonas aeruginosa PAO1.
Assay [5] deals with Staphylococcus aureus ATCC 43300.
Assay [6] concerns Escherichia coli ATCC 25922.
In assay [7] the test system is Staphylococcus aureus ATCC 25923.
In assay [8] the test system is Pseudomonas aeruginosa CMCCB 10104.
The subject of assay [9] is Staphylococcus epidermidis.

As usually defined, the MIC is the least concentration at which growth counts as inhibited. Low readings indicate greater potency, high ones weaker potency. `CC[C@H](C)[C@H](NC(=O)[C@H](C)NC(=O)[C@H](CC(C)C)NC(=O)[C@H](CS)NC(=O)[C@H](Cc1cnc[nH]1)NC(=O)[C@H](C)N)C(=O)NCC(=O)N[C@@H](CCCN=C(N)N)C(=O)N[C@@H](CCCCN)C(N)=O` [AHCLAIGRK]: the MIC in the assay on Pseudomonas aeruginosa is > 51.6 µM; with Staphylococcus aureus, 25.8 µM; against Escherichia coli, 25.8 µM; against Staphylococcus aureus MR it was ≥ 51.6 µM.

Take `CC[C@H](C)[C@H](NC(=O)[C@H](C)NC(=O)[C@@H](NC(=O)[C@@H]1CCCN1C(=O)[C@H](CC(C)C)NC(=O)[C@@H](NC(=O)[C@H](CO)NC(=O)[C@@H](NC(=O)[C@H](C)NC(=O)[C@H](CCSC)NC(=O)[C@H](CCCCN)NC(=O)[C@H](CC(C)C)NC(=O)[C@@H](NC(=O)[C@@H]1CCCN1C(=O)CNC(=O)[C@@H](NC(=O)[C@@H](N)Cc1ccccc1)[C@@H](C)CC)C(C)C)[C@@H](C)O)[C@@H](C)CC)[C@@H](C)O)C(=O)N[C@H]1CSSC[C@@H](C(=O)O)NC(=O)[C@H](CCCCN)NC(=O)[C@H](CCCCN)NC(=O)[C@H](Cc2ccccc2)NC(=O)CNC(=O)[C@H](CCCCN)NC1=O` [FIGPVLKMATSILPTAICKGFKKC]: the MIC in assay [1] was found to be 1.95 µM (≈ 5 µg/mL); in [2] it was 3.9 µM (≈ 9.99 µg/mL); in [3] it was 1.95 µM (≈ 5 µg/mL); in [4] it was 3.9 µM (≈ 9.99 µg/mL); against Escherichia coli ML-35p, 19.5 µM (≈ 50 µg/mL); in assay [5] it was 3.9 µM (≈ 9.99 µg/mL). In the assay on Bacillus subtilis, this compound displayed an MIC of 7.79 µM (≈ 20 µg/mL).

With `CC[C@H](C)[C@H](NC(=O)CN)C(=O)N[C@@H](CC(C)C)C(=O)N[C@@H](CO)C(=O)NCC(=O)N[C@H](C(=O)N[C@@H](CC(C)C)C(=O)NCC(=O)N[C@@H](CCSC)C(=O)NCC(=O)N[C@@H](CCCCN)C(=O)N[C@@H](CCCCN)C(=O)N[C@H](C(=O)N[C@H](C(=O)N[C@H]1CSSC[C@@H](C(=O)O)NC(=O)[C@H](CC(C)C)NC(=O)CNC(=O)[C@H](CCCN=C(N)N)NC(=O)[C@H](CC(C)C)NC(=O)CNC1=O)C(C)C)[C@@H](C)CC)C(C)C` [GILSGVLGMGKKIVCGLRGLC], the MIC was 3.47 µM (≈ 7.19 µg/mL) in [2], 3.47 µM (≈ 7.19 µg/mL) in assay [6], 1.74 µM (≈ 3.6 µg/mL) in [7] and 6.84 µM (≈ 14.2 µg/mL) in assay [8].

On to `CC[C@H](C)[C@H](NC(=O)[C@@H](NC(=O)[C@H](C)NC(=O)[C@H](Cc1ccccc1)NC(=O)[C@H](CC(C)C)NC(=O)CN)C(C)C)C(=O)N[C@@H](CCCCN)C(=O)N[C@@H](CCCCN)C(=O)N[C@H](C(=O)N[C@@H](C)C(=O)N[C@@H](CO)C(=O)N[C@H](C(=O)N[C@H](C(=O)N[C@@H](CCCCN)C(=O)NCC(=O)N[C@@H](CC(C)C)C(N)=O)[C@@H](C)CC)C(C)C)C(C)C` [GLFAVIKKVASVIKGL], for which the MIC is ≥ 60.9 µM with Pasteurella multocida; 15.2 µM (≈ 25 µg/mL) in the assay with Streptococcus uberis; 15.2 µM (≈ 25 µg/mL) in the assay with Bacillus cereus; 3.65 µM (≈ 6 µg/mL) in [9]; 1.83 µM (≈ 3 µg/mL) in the assay with Leuconostoc lactis; 3.65 µM (≈ 6 µg/mL) against Micrococcus luteus. Further, the MIC in the assay with Listeria innocua was 7.3 µM (≈ 12 µg/mL); in the assay with Staphylococcus aureus, 7.3 µM (≈ 12 µg/mL); against Escherichia coli, 30.4 µM (≈ 50 µg/mL).

Regarding `CC[C@H](C)[C@H](NC(=O)[C@H](CC(=O)O)NC(=O)[C@H](Cc1ccccc1)NC(=O)[C@H](CC(C)C)NC(=O)CN)C(=O)N[C@H](C(=O)N[C@@H](CCCCN)C(=O)N[C@@H](CCCCN)C(=O)N[C@H](C(=O)N[C@@H](C)C(=O)N[C@@H](CO)C(=O)N[C@H](C(=O)N[C@H](C(=O)NCC(=O)NCC(=O)N[C@@H](CC(C)C)C(N)=O)C(C)C)C(C)C)C(C)C)[C@@H](C)CC` [GLFDIIKKVASVVGGL], the MIC with Pasteurella multocida is ≥ 61.9 µM; in the assay with Streptococcus uberis, 7.43 µM (≈ 12 µg/mL); against Bacillus cereus it was 15.5 µM (≈ 25 µg/mL); in assay [9], 15.5 µM (≈ 25 µg/mL); with Leuconostoc lactis, 1.86 µM (≈ 3 µg/mL); against Micrococcus luteus, 7.43 µM (≈ 12 µg/mL). Further, the MIC with Listeria innocua was ≥ 61.9 µM; with Staphylococcus aureus it was 15.5 µM (≈ 25 µg/mL); in the assay with Escherichia coli it was > 61.9 µM.

As for `CC[C@H](C)[C@H](NC(=O)[C@H](CO)NC(=O)CNC(=O)[C@H](C)NC(=O)[C@@H](NC(=O)[C@H](Cc1cnc[nH]1)NC(=O)CNC(=O)[C@H](C)NC(=O)[C@@H](NC(=O)[C@H](CCCCN)NC(=O)[C@H](CCCCN)NC(=O)[C@@H](NC(=O)[C@@H](NC(=O)[C@H](CC(=O)O)NC(=O)[C@H](Cc1ccccc1)NC(=O)[C@H](CC(C)C)NC(=O)CN)[C@@H](C)CC)C(C)C)[C@@H](C)CC)[C@@H](C)CC)C(N)=O` [GLFDIVKKIAGHIAGSI], the MIC against Pasteurella multocida was ≥ 57.5 µM; in the assay with Streptococcus uberis it was ≥ 57.5 µM; against Bacillus cereus, ≥ 57.5 µM; in [9] it was ≥ 57.5 µM; against Leuconostoc lactis it was 6.9 µM (≈ 12 µg/mL); in the assay on Micrococcus luteus, ≥ 57.5 µM. In addition, the MIC in the assay on Listeria innocua is ≥ 57.5 µM; in the assay with Staphylococcus aureus, 28.8 µM (≈ 50 µg/mL); against Escherichia coli it was > 57.5 µM.

As for `CC[C@H](C)[C@H](NC(=O)[C@@H](NC(=O)[C@H](CC(=O)O)NC(=O)[C@H](Cc1ccccc1)NC(=O)[C@H](CC(C)C)NC(=O)CN)C(C)C)C(=O)N[C@@H](C)C(=O)N[C@@H](CCCCN)C(=O)N[C@H](C(=O)N[C@@H](C)C(=O)N[C@@H](CO)C(=O)N[C@H](C(=O)N[C@H](C(=O)N[C@@H](CCCCN)C(=O)N[C@@H](CCCCN)C(=O)N[C@@H](CC(C)C)C(N)=O)[C@@H](C)CC)C(C)C)C(C)C` [GLFDVIAKVASVIKKL], the MIC with Pasteurella multocida is ≥ 58.8 µM; against Streptococcus uberis, 7.05 µM (≈ 12 µg/mL); in the assay on Bacillus cereus, 7.05 µM (≈ 12 µg/mL); in assay [9], 3.53 µM (≈ 6 µg/mL); in the assay on Leuconostoc lactis it was 3.53 µM (≈ 6 µg/mL); in the assay with Micrococcus luteus, 7.05 µM (≈ 12 µg/mL). The minimal inhibitory concentration (MIC) with Listeria innocua is 14.7 µM (≈ 25 µg/mL); against Staphylococcus aureus, 3.53 µM (≈ 6 µg/mL); in the assay on Escherichia coli, 29.4 µM (≈ 50 µg/mL).

Take `CC[C@H](C)[C@H](NC(=O)CNC(=O)[C@H](CCCCN)NC(=O)CNC(=O)[C@H](C)NC(=O)[C@H](Cc1ccccc1)NC(=O)[C@H](CCCCN)NC(=O)[C@H](CO)NC(=O)[C@H](Cc1ccccc1)NC(=O)[C@H](CC(C)C)NC(=O)CN)C(=O)N[C@@H](CCCCN)C(=O)N[C@@H](CC(N)=O)C(=O)N[C@@H](Cc1ccccc1)C(=O)N[C@@H](CC(C)C)C(=O)N[C@@H](CC(N)=O)C(=O)N[C@@H](CCCCN)C(=O)NCC(=O)N[C@H](C(=O)N[C@@H](CCCCN)C(=O)N[C@@H](Cc1cnc[nH]1)C(=O)N[C@H](C(=O)NCC(=O)N[C@@H](CCCCN)C(=O)N[C@@H](CCC(=O)O)C(=O)O)[C@@H](C)CC)C(C)C` [GLFSKFAGKGIKNFLNKGVKHIGKE]: the MIC was 0.773 µM (≈ 2.1 µg/mL) in assay [2], 1.55 µM (≈ 4.2 µg/mL) in assay [6], 1.55 µM (≈ 4.2 µg/mL) in assay [7] and 0.773 µM (≈ 2.1 µg/mL) in assay [8].

With `CC[C@H](C)[C@H](NC(=O)[C@@H](NC(=O)CNC(=O)[C@@H](NC(=O)[C@@H](NC(=O)[C@H](Cc1cnc[nH]1)NC(=O)[C@@H]1CCCN1C(=O)[C@H](CC(C)C)NC(=O)[C@@H](NC(=O)[C@H](Cc1cnc[nH]1)NC(=O)[C@H](CCCCN)NC(=O)[C@H](C)NC(=O)[C@@H](NC(=O)[C@H](CO)NC(=O)CNC(=O)[C@H](CC(C)C)NC(=O)[C@@H](NC(=O)[C@H](CO)NC(=O)[C@H](CC(C)C)NC(=O)[C@H](CC(C)C)NC(=O)CN)C(C)C)C(C)C)C(C)C)C(C)C)C(C)C)C(C)C)C(=O)N[C@@H](C)C(=O)N[C@@H](CCC(=O)O)C(=O)N[C@@H](Cc1cnc[nH]1)C(=O)N[C@@H](CC(C)C)C(N)=O` [GLLSVLGSVAKHVLPHVVGVIAEHL], the MIC is 19.6 µM (≈ 50 µg/mL) in the assay on Pasteurella multocida; 9.82 µM (≈ 25 µg/mL) against Streptococcus uberis; ≥ 39.3 µM with Bacillus cereus; ≥ 39.3 µM in [9]; 4.91 µM (≈ 12.5 µg/mL) against Leuconostoc lactis; 4.91 µM (≈ 12.5 µg/mL) in the assay with Micrococcus luteus. Moreover, the figures for the minimal inhibitory concentration (MIC) in the assay on Listeria innocua, with Staphylococcus aureus and with Escherichia coli were 9.82 µM (≈ 25 µg/mL), 9.82 µM (≈ 25 µg/mL) and > 39.3 µM, respectively.

With `CC[C@H](C)[C@H](NC(=O)[C@@H](NC(=O)CN)C(C)C)C(=O)N[C@@H](CC(=O)O)C(=O)N[C@@H](C)C(=O)N[C@@H](C)C(=O)N[C@@H](CCCCN)C(=O)N[C@@H](CCCCN)C(=O)N[C@H](C(=O)N[C@H](C(=O)N[C@@H](CC(N)=O)C(=O)N[C@H](C(=O)N[C@@H](CC(C)C)C(=O)N[C@@H](CCCCN)C(=O)N[C@@H](CC(N)=O)C(=O)N[C@@H](CC(C)C)C(=O)N1CCC[C@H]1C(N)=O)C(C)C)C(C)C)C(C)C` [GVIDAAKKVVNVLKNLP], the MIC in the assay with Pasteurella multocida was ≥ 56.2 µM; with Streptococcus uberis it was 7.03 µM (≈ 12.5 µg/mL); against Bacillus cereus, 14.1 µM (≈ 25 µg/mL); in assay [9], 7.03 µM (≈ 12.5 µg/mL); against Leuconostoc lactis, 1.69 µM (≈ 3 µg/mL); against Micrococcus luteus, 14.1 µM (≈ 25 µg/mL). Further, the results for the MIC against Listeria innocua, against Staphylococcus aureus and in the assay with Escherichia coli were 28.1 µM (≈ 50 µg/mL), 14.1 µM (≈ 25 µg/mL) and > 56.2 µM, respectively.
